Laboratory results from US20180064755A1, “COMPOSITIONS AND METHODS FOR TREATING DRUG ADDICTION” (priority 2015, published 2018).

Tested on: codeine addiction
Assay: Blind trial, rubidium chloride to treat codeine addiction
Type: in vivo, human
Experimental: The trial below was a blind trial with 300 mg of rubidium chloride taken once per day administered in a glass of water in the morning by a person of 90 kg; and a placebo being taken by a person of 66 kg, both of whom were addicted to codeine
The trial was undertaken with the recommendation by doctors not to proceed too quickly and to eat potassium rich foods, especially at night; The most difficult aspect was to stop the craving in the evening—a solution for people who cannot stop the craving at night would be to split the dosage of the 300 mg of Rubidium Chloride and take half in the morning and half late in the afternoon.
The aim of this trial was to stop the craving for codeine with the aid of the compound and use the enhanced energy and stimulation supplied from the compound that was tested to change addiction habits.
The trial was for 300 mg of Rubidium Chloride taken once per day taken in a glass of water in the morning in this blind study and a placebo of powdered sugar taken once per day taken in a glass of water in the morning.

[1] = 90 kg male, 300 mg once per day, self-report

With `[Cl-].[Rb+]` [rubidium chloride] the craving for codeine (90 kg male addicted to codeine, 300 mg once per day in a glass of water in the morning, self-report) was “less craving for the drug than normal even after the first day”, the “energy and activity during the day” value [1] was “much more energy than before” and the “stimulation from the medication” value [1] was “very, very strong”. The “outcome of codeine addiction” value (90 kg male, 300 mg once per day, two month trial) was “lost the addiction to codeine”.
